Data: patent publication US10251394B2, “Molecules having pesticidal utility, and intermediates, compositions, and processes, related thereto” (Dow AgroSciences LLC, priority 2016, dated 2019)

Columns and labels:
Assay type in all cases: in vivo
[1] = tested on: Beet Armyworm (Spodoptera exigua); assay: Bioassay on Beet Armyworm (BAW), 128-well diet tray assay; settings: Beet Armyworm, Table ABC, read-out: BAW rating
How it was run: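 Percent mortality, averaged over eight wells, was scored after five to seven days at 25° C under 14:10 light-dark. Each well's diet carried 50 μg/cm^2 of test molecule applied in acetone-water (90:10) and dried before one to five second-instar larvae were added.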

[2] = tested on: Cabbage Looper (Trichoplusia ni); assay: Bioassay on Cabbage Looper (CL), 128-well diet tray assay; settings: Cabbage Looper, Table ABC, read-out: CL rating
How it was run: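 Mortality after five to seven days at 25° C (14:10 photoperiod), averaged over eight wells per compound. Diet in each well carried 50 μg/cm^2 of dried test molecule and received one to five second-instar larvae.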

[3] = tested on: Yellow Fever Mosquito (Aedes aegypti); assay: Bioassay on Yellow Fever Mosquito (YFM) larvae, 96-well plate; settings: Table ABC
How it was run: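 About 1-day-old larvae in water with liver powder were added to wells holding compound from a 4000 ppm DMSO master diluted in 90:10 water:acetone. Plates covered and kept at room temperature for 3 days, then each well scored for mortality on a rating scale.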

Row | Structure (SMILES) | pest or weed control at 50 µg/cm2 [1] | pest or weed control at 50 µg/cm2 [2] | YFM rating [3]
1 | C[C@@H](NC(=O)c1ccc(/C(F)=C/C(c2cc(Br)cc(Br)c2)C(F)(F)F)cc1C(F)(F)F)C(=O)NCC(F)(F)F (stereo partly drawn) [F33, 4-((Z)-3-(3,5-Dibromophenyl)-1,4,4,4-tetrafluorobut-1-en-1-yl)-N—((R)-1-oxo-1-((2,2,2-trifluoroethyl)amino)propan-2-yl)-2-(trifluoromethyl)benzamide] | 50 to 100% | 50 to 100% | A (80-100)
2 | C[C@@H](NC(=O)c1ccc(/C(F)=C/C(c2cc(Cl)c(F)c(Cl)c2)C(F)(F)F)cc1C(F)(F)F)C(=O)NCC(F)(F)F (stereo partly drawn) [F36, 4-((Z)-3-(3,5-Dichloro-4-fluorophenyl)-1,4,4,4-tetrafluorobut-1-en-1-yl)-N—((R)-1-oxo-1-((2,2,2-trifluoroethyl)amino)propan-2-yl)-2-(trifluoromethyl)benzamide] | 50 to 100% | 50 to 100% | A (80-100)
3 | C[C@@H](NC(=O)c1ccc(/C(F)=C/C(c2ccc(Cl)c(Br)c2)C(F)(F)F)cc1C(F)(F)F)C(=O)NCC(F)(F)F (stereo partly drawn) [F138, 4-((Z)-3-(3-Bromo-4-chlorophenyl)-1,4,4,4-tetrafluorobut-1-en-1-yl)-N—((R)-1-oxo-1-((2,2,2-trifluoroethyl)amino)propan-2-yl)-2-(trifluoromethyl)benzamide] | 50 to 100% | 50 to 100% | A (80-100)
4 | CN(CC(F)(F)F)C(=O)C1(NC(=O)c2ccc(/C(F)=C/C(c3ccc(Cl)c(Br)c3)C(F)(F)F)cc2C(F)(F)F)CC1 (stereo not drawn) [PF39, (Z)-4-(3-(3-Bromo-4-chlorophenyl)-1,4,4,4-tetrafluorobut-1-en-1-yl)-N-(1-(methyl(2,2,2-trifluoroethyl)carbamoyl)cyclopropyl)-2-(trifluoromethyl)benzamide] | 50 to 100% | 50 to 100% | B (More than 0-Less than 80)
5 | C[C@@H](NC(=O)c1ccc(/C(F)=C/C(c2ccc(C(F)(F)F)c(F)c2)C(F)(F)F)cc1C(F)(F)F)C(=O)NCC(F)(F)F (stereo partly drawn) [F210] | 50 to 100% | 50 to 100% | B (More than 0-Less than 80)
6 | C=Cc1c(Cl)cc(C(/C=C(\F)c2ccc(C(=O)N[C@H](C)C(=O)NCC(F)(F)F)c(C(F)(F)F)c2)C(F)(F)F)cc1Cl (stereo partly drawn) [F52, 4-((Z)-3-(3,5-Dichloro-4-vinylphenyl)-1,4,4,4-tetrafluorobut-1-en-1-yl)-N—((R)-1-oxo-1-((2,2,2-trifluoroethyl)amino)propan-2-yl)-2-(trifluoromethyl)benzamide] | 50 to 100% | 50 to 100% | A (80-100)
7 | C=Cc1c(Cl)cc(C(/C=C(\F)c2ccc(C(=O)NC3(C(=O)NCC(F)(F)F)CC3)c(C(F)(F)F)c2)C(F)(F)F)cc1Cl (stereo not drawn) [F113, (Z)-4-(3-(3,5-Dichloro-4-vinylphenyl)-1,4,4,4-tetrafluorobut-1-en-1-yl)-N-(1-((2,2,2-trifluoroethyl)carbamoyl)cyclopropyl)-2-(trifluoromethyl)benzamide] | 50 to 100% | 50 to 100% | A (80-100)
8 | O=C(NC1(C(=O)NCC(F)(F)F)CC1)c1ccc(/C(F)=C/C(c2cc(Br)c(Cl)c(Br)c2)C(F)(F)F)cc1C(F)(F)F (stereo not drawn) [F45, (Z)-4-(3-(3,5-Dibromo-4-chlorophenyl)-1,4,4,4-tetrafluorobut-1-en-1-yl)-N-(1-((2,2,2-trifluoroethyl)carbamoyl)cyclopropyl)-2-(trifluoromethyl)benzamide] | 50 to 100% | 50 to 100% | A (80-100)
9 | CN(CC(F)(F)F)C(=O)CNC(=O)c1ccc(/C(F)=C/C(c2ccc(Cl)c(Cl)c2)C(F)(F)F)cc1C(F)(F)F (stereo not drawn) [F74, (Z)-4-(3-(3,4-Dichlorophenyl)-1,4,4,4-tetrafluorobut-1-en-1-yl)-N-(2-(methyl(2,2,2-trifluoroethyl)amino)-2-oxoethyl)-2-(trifluoromethyl)benzamide] | 50 to 100% | 50 to 100% | A (80-100)
10 | O=C(NC1(C(=O)NCC(F)(F)F)CC1)c1ccc(/C(F)=C/C(c2cc(Cl)c(Br)c(Cl)c2)C(F)(F)F)cc1C(F)(F)F (stereo not drawn) [F60, (Z)-4-(3-(4-Bromo-3,5-dichlorophenyl)-1,4,4,4-tetrafluorobut-1-en-1-yl)-N-(1-((2,2,2-trifluoroethyl)carbamoyl)cyclopropyl)-2-(trifluoromethyl)benzamide] | 50 to 100% | 50 to 100% | A (80-100)
11 | C[C@@H](NC(=O)c1ccc(/C(F)=C/C(c2cc(Cl)c(Br)c(Cl)c2)C(F)(F)F)cc1C(F)(F)F)C(=O)NCC(F)(F)F (stereo partly drawn) [F59, 4-((Z)-3-(4-Bromo-3,5-dichlorophenyl)-1,4,4,4-tetrafluorobut-1-en-1-yl)-N—((R)-1-oxo-1-((2,2,2-trifluoroethyl)amino)propan-2-yl)-2-(trifluoromethyl)benzamide] | 50 to 100% | 50 to 100% | A (80-100)
12 | CN(CC(F)(F)F)C(=O)CNC(=O)c1ccc(/C(F)=C/C(c2ccc(Br)c(Br)c2)C(F)(F)F)cc1C(F)(F)F (stereo not drawn) [PF4, (Z)-4-(3-(3,4-Dibromophenyl)-1,4,4,4-tetrafluorobut-1-en-1-yl)-N-(2-(methyl(2,2,2-trifluoroethyl)amino]-2-oxoethyl)-2-(trifluoromethyl)benzamide] | 50 to 100% | 50 to 100% | A (80-100)
13 | Cc1cc(C(/C=C(\F)c2ccc(C(=O)N[C@H](C)C(=O)NCC(F)(F)F)c(C(F)(F)F)c2)C(F)(F)F)cc(Cl)c1Cl (stereo partly drawn) [PF13] | 50 to 100% | 50 to 100% | B (More than 0-Less than 80)
14 | CN(CC(F)(F)F)C(=O)CNC(=O)c1ccc(/C(F)=C/C(c2ccc(Cl)c(Br)c2)C(F)(F)F)cc1C(F)(F)F (stereo not drawn) [PF35, (Z)-4-(3-(3-Bromo-4-chlorophenyl)-1,4,4,4-tetrafluorobut-1-en-1-yl)-N-(2-(methyl(2,2,2-trifluoroethyl)amino)-2-oxoethyl)-2-(trifluoromethyl)benzamide] | 50 to 100% | 50 to 100% | B (More than 0-Less than 80)
15 | Cc1cc(C(/C=C(\F)c2ccc(C(=O)NCC(=O)N(C)CC(F)(F)F)c(C(F)(F)F)c2)C(F)(F)F)cc(C)c1Cl (stereo not drawn) [F103, (Z)-4-(3-(4-Chloro-3,5-dimethylphenyl)-1,4,4,4-tetrafluorobut-1-en-1-yl)-N-(2-(methyl(2,2,2-trifluoroethyl)amino)-2-oxoethyl)-2-(trifluoromethyl)benzamide] | 50 to 100% | 50 to 100% | B (More than 0-Less than 80)
16 | O=C(NC1(C(=O)NCC(F)(F)F)CC1)c1ccc(/C(F)=C/C(c2ccc(Br)c(Br)c2)C(F)(F)F)cc1C(F)(F)F (stereo not drawn) [F80, (Z)-4-(3-(3,4-Dibromophenyl)-1,4,4,4-tetrafluorobut-1-en-1-yl)-N-(1-((2,2,2-trifluoroethyl)carbamoyl)cyclopropyl)-2-(trifluoromethyl)benzamide] | 50 to 100% | 50 to 100% | A (80-100)
17 | C[C@@H](NC(=O)c1ccc(/C(F)=C/C(c2ccc(Cl)c(F)c2)C(F)(F)F)cc1C(F)(F)F)C(=O)N(C)CC(F)(F)F (stereo partly drawn) [PF20, 4-((Z)-3-(4-Chloro-3-fluorophenyl)-1,4,4,4-tetrafluorobut-1-en-1-yl)-N—((R)-1-(methyl(2,2,2-trifluoroethyl)amino)-1-oxopropan-2-yl)-2-(trifluoromethyl)benzamide] | 50 to 100% | 50 to 100% | B (More than 0-Less than 80)
18 | CCN1OC[C@@H](NC(=O)c2ccc(/C(F)=C/C(c3cc(Cl)c(Cl)c(Cl)c3)C(F)(F)F)cc2C(F)(F)F)C1=O (stereo partly drawn) [F53, N—((R)-2-Ethyl-3-oxoisoxazolidin-4-yl)-4-((Z)-1,4,4,4-tetrafluoro-3-(3,4,5-trichlorophenyl)but-1-en-1-yl)-2-(trifluoromethyl)benzamide] | 50 to 100% | 50 to 100% | A (80-100)
19 | Cc1cc(C(/C=C(\F)c2ccc(C(=O)NCC(=O)N(C)CC(F)(F)F)c(C(F)(F)F)c2)C(F)(F)F)cc(Cl)c1Cl (stereo not drawn) [PF12, (Z)-4-(3-(3,4-Dichloro-5-methylphenyl)-1,4,4,4-tetrafluoro-but-1-en-1-yl)-N-(2-(methyl(2,2,2-trifluoroethyl)amino)-2-oxoethyl)-2-(trifluoromethyl)benzamide] | 50 to 100% | 50 to 100% | B (More than 0-Less than 80)
20 | CN(CC(F)(F)F)C(=O)C1(NC(=O)c2ccc(/C(F)=C/C(c3cc(Cl)cc(Br)c3)C(F)(F)F)cc2C(F)(F)F)CC1 (stereo not drawn) [PF33, (Z)-4-(3-(3-Bromo-5-chlorophenyl)-1,4,4,4-tetrafluorobut-1-en-1-yl)-N-(1-(methyl(2,2,2-trifluoroethyl)carbamoyl)cyclopropyl)-2-(trifluoromethyl)benzamide] | 50 to 100% | 50 to 100% | B (More than 0-Less than 80)
21 | O=C(CNC(=O)c1ccc(/C(F)=C/C(c2cc(F)c(F)c(Cl)c2)C(F)(F)F)cc1C(F)(F)F)NCC(F)(F)F (stereo not drawn) [F153, (Z)-4-(3-(3-Chloro-4,5-difluorophenyl)-1,4,4,4-tetrafluorobut-1-en-1-yl)-N-(2-oxo-2-((2,2,2-trifluoroethyl)amino)ethyl)-2-(trifluoromethyl)benzamide] | 50 to 100% | 50 to 100% | A (80-100)
